{"source": "patent US20240279684A1", "about": "“CYTOSOLIC DELIVERY OF GENOME EDITING TOOLS” (SAPREME TECHNOLOGIES B.V., priority 2021, published 2024)", "system": "Neuro-2A cells", "assay": "Transfection efficiency of PD-nanoplexes with/without saponin, flow cytometry (GFP)", "type": "cell-based, murine", "method": "After biophysical characterisation had established that nanoplexes of the large plasmid DNA and the poly-lysine peptide were formed, cell experiments were performed: transfections. […] Without wishing to be bound by any theory, the latter effect is most likely due to insufficient complexing of DNA. […] JIMT-1-cells (DSMZ no.: ACC 589) and Neuro-2A- cells (DSMZ no.: ACC 148) were transfected with nanoplexes containing relatively large Cas9-GFP-plasmid, with and without GE1741-Co-application or SO1861-Co-application at a non-toxic concentration, when the cell which is to be transfected is considered. The transfection efficiency of all transfection conditions was measured after 48 h incubation time using flow cytometry by comparison to the negative control in terms of fluorescence intensity (for example, cells contacted with the nanoparticles in the absence of saponin). The efficiency of GE1741-based transfections and SO1861-based transfections was also compared with efficiency of Lipofectamine3000™-based transfection of the nanoparticles. Transfections were performed according to protocols commonly known and applied in the field (Clochard et al., 2020; Sama et al., 2018a; Sama et al., 2017; Sama et al., 2018b). […] Transfection efficiency of GE1741-mediated PD-transfection and SO1861-mediated PD-transfections on Neuro-2A cells and JIMT-1 cells was assessed. Cells were transfected with Cas9-GFP-DNA containing PD-nanoplexes, with and without GE1741 or SO1861 (final concentration of the saponin was 2 μg/ml). In Neuro-2A cells and JIMT-1 cells transection efficiency varied between 30% and 40%. Lipofectamin3000 served as reference. n≥3; a significant difference compared to the GE1741-free transfections or SO1861-free transfections was apparent, U-test, p≤0.05.\nFIG. 4A, B. Transfection efficiency of saponin-mediated PD (Cas9-GFP)-transfections on Neuro-2A cells (FIG. 4A) and on JIMT-1-cells (FIG. 4B). Neuro-2A cells (A) and JIMT-1 cells (B) were transfected with GFP-DNA (i.e. a plasmid comprising the GFP DNA) bearing PD-nanoplexes or with Cas9-GFP-DNA bearing PD-nanoplexes, with and without the highest non-toxic saponin Co-administration (GE1741 Co-administration at 2 μg/ml or SO1861 Co-administration at 2 μg/ml). While GFP-DNA-transfections reached high efficiencies of around 70%, approximately 40% of all cells expressed GFP after Cas9-GFP-transfection. […] N≥3; *: significant difference compared to the saponin-free transfection (only nuclease), U-test.\nJIMT-1-cells (human breast carcinoma) and Neuro-2A-cells (murine neuroblastoma) were transfected with nanoplexes, containing Cas9-GFP-plasmid, with and without saponin GE1741-co-application or saponin SO1861-co-application (that is to say, the saponin is added to the cell culture together with the addition of the nanoparticles comprising the nucleic acid that is to be transfected in the presence of the saponin), in a non-toxic concentration when the saponins are considered. The mass ratios for the peptide and the nucleic acid (plasmid DNA) in the nanoparticles were selected considering the dynamic light scattering (DLS) measurements and considering the aforementioned earlier assessed toxicity and earlier performed efficiency studies. The transfection efficiency of all transfection conditions was measured after 48 h incubation time via flow cytometry by comparison to the negative control in terms of fluorescence intensity (FIG. 4). […]", "note": "Entries after “also recorded” stand apart in the source; their conditions may differ."}
{"smiles": "CC(=O)OC1C(C)OC(OC2C(C)OC(OC(=O)C34CCC(C)(C)CC3C3=CCC5C6(C)CCC(OC7OC(C(=O)O)C(O)C(OC8OCC(O)C(O)C8O)C7OC7OC(CO)C(O)C(O)C7O)C(C)(C=O)C6CCC5(C)C3(C)CC4O)C(OC3OC(C)C(OC4OCC(O)C(OC5OCC(O)C(O)C5O)C4O)C(O)C3O)C2O)C(O)C1OC(C)=O", "note": "(stereo not drawn) [GE1741]", "values": [{"measurement": "transfection efficiency (cells expressing GFP)", "setting": "GFP-DNA PD-nanoplexes, saponin 2 μg/ml, Neuro-2A", "value": "around 70%"}, {"measurement": "transfection modulating properties compared to SO1861", "setting": "large plasmid PD-nanoplexes, Neuro-2A and JIMT-1", "value": "slightly better transfection modulating properties; also recorded: even more improved transfection efficiency"}, {"measurement": "transfection efficiency compared with Lipofectamine3000", "setting": "nanoplexes of relatively large DNA plasmid and poly-lysine, saponin present", "value": "higher than obtainable with current gold standard Lipofectamine3000™"}]}
